From PubChem BioAssay (NCI)
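Growth conditions: 96-well plates. Treatment: test compound, 48 hours, 5 concentrations. Analysis: linear interpolation between bracketing concentrations; unreached endpoints set to highest concentration. TGI marks complete inhibition of growth.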

Key:
Test in all cases: NCI tumour cell line growth inhibition, 48 h
[1] = test system: 786-0 renal
[2] = test system: A498 renal
[3] = test system: A549 NSCLC
[4] = test system: ACHN renal
[5] = test system: CCRF-CEM leukemia
[6] = test system: COLO 205 colon
[7] = test system: DLD-1 colon
[8] = test system: DMS 114 small cell lung
[9] = test system: DMS 273 small cell lung
[10] = test system: EKVX NSCLC
[11] = test system: HCC-2998 colon
[12] = test system: HCT-116 colon
[13] = test system: HCT-15 colon
[14] = test system: HL-60(TB) leukemia
[15] = test system: HOP-18 NSCLC
[16] = test system: HOP-62 NSCLC
[17] = test system: HOP-92 NSCLC
[18] = test system: IGROV1 ovarian
[19] = test system: K-562 leukemia
[20] = test system: KM12 colon
[21] = test system: KM20L2 colon
[22] = test system: LOX IMVI melanoma
[23] = test system: LXFL 529 NSCLC
[24] = test system: M14 melanoma
[25] = test system: M19-MEL melanoma
[26] = test system: MALME-3M melanoma
[27] = test system: MOLT-4 leukemia
[28] = test system: NCI-H23 lung
[29] = test system: NCI-H460 lung
[30] = test system: NCI-H522 lung
[31] = test system: OVCAR-3 ovarian
[32] = test system: OVCAR-4 ovarian
[33] = test system: OVCAR-5 ovarian
[34] = test system: OVCAR-8 ovarian
[35] = test system: RPMI-8226 leukemia
[36] = test system: RXF 393 renal
[37] = test system: RXF-631 renal
[38] = test system: SF-268 CNS
[39] = test system: SF-295 CNS
[40] = test system: SF-539 CNS
[41] = test system: SK-MEL-2 melanoma
[42] = test system: SK-MEL-28 melanoma
[43] = test system: SK-OV-3 ovarian
[44] = test system: SN12C renal
[45] = test system: SNB-19 CNS
[46] = test system: SNB-75 CNS
[47] = test system: SNB-78 CNS
[48] = test system: SW-620 colon
[49] = test system: TK-10 renal
[50] = test system: U251 CNS
[51] = test system: UACC-257 melanoma
[52] = test system: UACC-62 melanoma
[53] = test system: UO-31 renal
[54] = test system: CAKI-1 renal
[55] = test system: HT29 colon
[56] = test system: NCI-H226 lung
[57] = test system: SK-MEL-5 melanoma
[58] = test system: SR leukemia
[59] = test system: BT-549 breast
[60] = test system: DU-145 prostate
[61] = test system: HS 578T breast
[62] = test system: MCF7 breast
[63] = test system: MDA-MB-231 breast
[64] = test system: MDA-MB-435
[65] = test system: MDA-N
[66] = test system: NCI/ADR-RES ovarian
[67] = test system: PC-3 prostate
[68] = test system: T-47D breast
[69] = test system: XF 498 CNS

Structure (SMILES): C[N+]1(C)C/C(=C/c2ccc(F)cc2)C(=O)/C(=C\c2ccc(F)cc2)C1
- TGI [1]: > 100 µM
- TGI [2]: > 100 µM
- TGI [3]: > 100 µM
- TGI [4]: > 100 µM
- TGI [5]: 68.5 µM
- TGI [6]: > 100 µM
- TGI [7]: > 100 µM
- TGI [8]: > 100 µM
- TGI [9]: 86.2 µM
- TGI [10]: > 100 µM
- TGI [11]: > 100 µM
- TGI [12]: > 100 µM
- TGI [13]: > 100 µM
- TGI [14]: 50.3 µM
- TGI [15]: > 100 µM
- TGI [16]: > 100 µM
- TGI [17]: > 100 µM
- TGI [18]: 70.1 µM
- TGI [19]: > 100 µM
- TGI [20]: > 100 µM
- TGI [21]: > 100 µM
- TGI [22]: > 100 µM
- TGI [23]: > 100 µM
- TGI [24]: > 100 µM
- TGI [25]: > 100 µM
- TGI [26]: > 100 µM
- TGI [27]: 45.5 µM
- TGI [28]: > 100 µM
- TGI [29]: > 100 µM
- TGI [30]: 36.9 µM
- TGI [31]: > 100 µM
- TGI [32]: > 100 µM
- TGI [33]: > 100 µM
- TGI [34]: > 100 µM
- TGI [35]: 57.8 µM
- TGI [36]: > 100 µM
- TGI [37]: > 100 µM
- TGI [38]: > 100 µM
- TGI [39]: > 100 µM
- TGI [40]: > 100 µM
- TGI [41]: > 100 µM
- TGI [42]: 40.8 µM
- TGI [43]: > 100 µM
- TGI [44]: 11.9 µM
- TGI [45]: > 100 µM
- TGI [46]: > 100 µM
- TGI [47]: > 100 µM
- TGI [48]: > 100 µM
- TGI [49]: > 100 µM
- TGI [50]: 42.7 µM
- TGI [51]: > 100 µM
- TGI [52]: 33.5 µM
- TGI [53]: > 100 µM

Structure (SMILES): Cc1ccc(S(=O)(=O)N/N=C(/CC(=O)c2c(C)n([O-])c3ccccc3[n+]2=O)C(=O)Nc2ccc(C)c(C)c2)cc1
- TGI [1]: > 100 µM
- TGI [2]: > 100 µM
- TGI [3]: > 100 µM
- TGI [4]: > 100 µM
- TGI [54]: > 100 µM
- TGI [6]: > 100 µM
- TGI [7]: > 100 µM
- TGI [8]: 67.2 µM
- TGI [9]: > 100 µM
- TGI [10]: > 100 µM
- TGI [11]: > 100 µM
- TGI [12]: > 100 µM
- TGI [13]: > 100 µM
- TGI [15]: > 100 µM
- TGI [16]: > 100 µM
- TGI [55]: > 100 µM
- TGI [18]: > 100 µM
- TGI [20]: > 100 µM
- TGI [21]: > 100 µM
- TGI [23]: > 100 µM
- TGI [24]: > 100 µM
- TGI [25]: 42.6 µM
- TGI [26]: > 100 µM
- TGI [56]: > 100 µM
- TGI [28]: > 100 µM
- TGI [29]: > 100 µM
- TGI [30]: > 100 µM
- TGI [31]: 63.1 µM
- TGI [32]: > 100 µM
- TGI [33]: > 100 µM
- TGI [35]: > 100 µM
- TGI [36]: > 100 µM
- TGI [37]: > 100 µM
- TGI [38]: > 100 µM
- TGI [39]: > 100 µM
- TGI [40]: > 100 µM
- TGI [41]: > 100 µM
- TGI [42]: > 100 µM
- TGI [43]: > 100 µM
- TGI [44]: > 100 µM
- TGI [45]: > 100 µM
- TGI [46]: > 100 µM
- TGI [47]: > 100 µM
- TGI [48]: > 100 µM
- TGI [50]: > 100 µM
- TGI [51]: > 100 µM
- TGI [52]: > 100 µM
- TGI [53]: > 100 µM

Structure (SMILES): CC/C(CC(=O)CCC(=O)Nc1c(C)cccc1C)=N\NC(=O)NN
- TGI [1]: > 100 µM
- TGI [2]: > 100 µM
- TGI [3]: > 100 µM
- TGI [4]: > 100 µM
- TGI [5]: > 100 µM
- TGI [6]: > 100 µM
- TGI [7]: > 100 µM
- TGI [10]: > 100 µM
- TGI [11]: > 100 µM
- TGI [12]: > 100 µM
- TGI [13]: > 100 µM
- TGI [14]: > 100 µM
- TGI [15]: > 100 µM
- TGI [17]: > 100 µM
- TGI [55]: > 100 µM
- TGI [18]: > 100 µM
- TGI [19]: > 100 µM
- TGI [20]: > 100 µM
- TGI [21]: > 100 µM
- TGI [23]: > 100 µM
- TGI [24]: > 100 µM
- TGI [25]: > 100 µM
- TGI [26]: > 100 µM
- TGI [27]: > 100 µM
- TGI [28]: > 100 µM
- TGI [29]: > 100 µM
- TGI [31]: > 100 µM
- TGI [32]: > 100 µM
- TGI [33]: > 100 µM
- TGI [34]: > 100 µM
- TGI [36]: > 100 µM
- TGI [37]: > 100 µM
- TGI [38]: > 100 µM
- TGI [39]: > 100 µM
- TGI [40]: > 100 µM
- TGI [41]: > 100 µM
- TGI [57]: > 100 µM
- TGI [44]: > 100 µM
- TGI [45]: > 100 µM
- TGI [47]: > 100 µM
- TGI [58]: > 100 µM
- TGI [48]: > 100 µM
- TGI [49]: > 100 µM
- TGI [50]: > 100 µM
- TGI [51]: > 100 µM
- TGI [52]: > 100 µM
- TGI [53]: > 100 µM

Structure (SMILES): O=C1C=CC(=O)c2c(O)c(CO)c(CO)c(O)c21
- TGI [1]: 0.723 µM
- TGI [2]: 3.64 µM
- TGI [3]: 5.58 µM
- TGI [4]: 1.05 µM
- TGI [59]: 0.593 µM
- TGI [54]: 0.875 µM
- TGI [5]: 0.195 µM
- TGI [6]: 0.171 µM
- TGI [7]: 0.202 µM
- TGI [8]: 0.878 µM
- TGI [9]: 1.42 µM
- TGI [60]: 3.27 µM
- TGI [10]: 5.03 µM
- TGI [11]: 4.78 µM
- TGI [12]: 0.662 µM
- TGI [13]: 0.49 µM
- TGI [14]: 0.405 µM
- TGI [16]: 2.4 µM
- TGI [17]: 0.944 µM
- TGI [61]: 4.71 µM
- TGI [55]: 0.741 µM
- TGI [18]: 4.14 µM
- TGI [19]: 13.4 µM
- TGI [20]: 3.19 µM
- TGI [21]: 2.25 µM
- TGI [22]: 0.674 µM
- TGI [23]: 0.351 µM
- TGI [24]: 0.411 µM
- TGI [25]: 0.216 µM
- TGI [26]: 0.467 µM
- TGI [62]: 0.337 µM
- TGI [63]: 2.74 µM
- TGI [64]: 1.66 µM
- TGI [65]: 0.736 µM
- TGI [27]: 0.188 µM
- TGI [56]: 5.03 µM
- TGI [28]: 1.3 µM
- TGI [29]: 2.79 µM
- TGI [30]: 0.239 µM
- TGI [66]: 8.2 µM
- TGI [31]: 1.71 µM
- TGI [32]: 0.581 µM
- TGI [33]: 3.54 µM
- TGI [34]: 2.04 µM
- TGI [67]: 4.37 µM
- TGI [35]: 0.814 µM
- TGI [36]: 0.939 µM
- TGI [37]: 2.55 µM
- TGI [38]: 3.93 µM
- TGI [39]: 3.19 µM
- TGI [40]: 1.71 µM
- TGI [41]: 2.58 µM
- TGI [42]: 0.96 µM
- TGI [57]: 1.12 µM
- TGI [43]: 18 µM
- TGI [44]: 0.774 µM
- TGI [45]: 6.13 µM
- TGI [46]: 1.64 µM
- TGI [47]: 3.52 µM
- TGI [58]: 0.481 µM
- TGI [48]: 0.288 µM
- TGI [68]: 1.52 µM
- TGI [49]: 0.842 µM
- TGI [50]: 5.35 µM
- TGI [51]: 0.883 µM
- TGI [52]: 1.88 µM
- TGI [53]: 2.2 µM
- TGI [69]: 0.665 µM
